Data reported in ChEMBL document CHEMBL1201862, “PubChem BioAssay data set” (2004).
“And” between values parts separate entries of the source, which are not always exact repeats. Equal entries are not always repeated.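 1) Cells in 96-well plates. 2) Compound, 48 h, 5 concentrations. 3) Linear interpolation between surrounding doses. 4) Unreached endpoint = highest concentration. Abbreviation: GI50, concentration required for 50% inhibition of growth.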 The source made the active and inactive calls. Cut-off read from the data, not from the text of the source: active = GI50 up to about 1.1 µM and inactive = higher.

How the values were obtained:
Test in all cases: inhibition of tumour cell growth, NCI panel, 48 h
[1] = tested on: HOP-62
[2] = tested on: UACC-62
[3] = tested on: SF-295
[4] = tested on: UACC-257
[5] = tested on: OVCAR-3
[6] = tested on: SW-620
[7] = tested on: A549
[8] = tested on: SK-MEL-5
[9] = tested on: HCT-116
[10] = tested on: SR
[11] = tested on: IGROV-1
[12] = tested on: Malme-3M
[13] = tested on: U-251
[14] = tested on: SF-539
[15] = tested on: LOX IMVI
[16] = tested on: COLO 205
[17] = tested on: A498
[18] = tested on: RXF 393

Measured: GI50

COc1cc2cc[n+]3c4cc(OC)c(OC)cc4c(C)cc3c2cc1OC
inactive: [1] > 100 µM | [2] > 100 µM | [3] > 100 µM | [4] 88.7 µM | [5] > 100 µM | [6] > 100 µM | [7] > 100 µM | [8] > 100 µM | [9] > 100 µM | [10] > 100 µM | [11] > 100 µM | [12] > 100 µM | [13] 70 µM | [14] > 100 µM | [15] > 100 µM | [16] 89.1 µM

CCCCCCCCCCCCCP(=O)(O)OCC
inactive: [1] > 100 µM | [2] > 100 µM | [3] > 100 µM | [4] > 100 µM | [5] > 100 µM | [17] > 100 µM | [6] > 100 µM | [7] > 100 µM | [8] > 100 µM | [9] > 100 µM | [11] > 100 µM | [12] > 100 µM | [13] > 100 µM | [18] > 100 µM | [14] > 100 µM | [15] > 100 µM | [16] > 100 µM

CC(C)OP(=S)(NC(=S)c1ccccc1)OC(C)C
inactive: [2] > 100 µM | [3] 76.2 µM | [4] > 100 µM | [5] > 100 µM | [17] > 100 µM | [6] > 100 µM | [7] > 100 µM | [8] 42.9 µM | [9] > 100 µM | [11] > 100 µM | [12] > 100 µM | [13] > 100 µM | [14] > 100 µM | [15] > 100 µM | [16] > 100 µM

O=C1C=CC2(O)OCC3C=C4O[C@@H]5OC6(CCCCC6)O[C@@H]5C4[C@@H]2[C@@H]13 (stereo partly drawn)
inactive: [1] > 100 µM | [2] 32.7 µM | [3] > 100 µM | [4] 17.8 µM | [5] 24.2 µM | [17] 72.4 µM | [6] 27.4 µM | [7] > 100 µM | [8] 43.5 µM | [9] 15.8 µM | [11] 56.4 µM | [12] 30.3 µM | [13] > 100 µM | [15] 42.6 µM | [16] 15.3 µM

COC(=O)CC(C(C(C)=O)C(=O)OCc1ccccc1)N1C(=O)OC(c2ccccc2)C1c1ccccc1 (stereo not drawn)
inactive: [1] 54.1 µM | [2] 41.1 µM and 45.4 µM | [3] 19.5 µM and 30.8 µM | [5] 29.6 µM and 17.4 µM | [6] > 100 µM | [7] 68.5 µM and 76.2 µM | [8] 60.1 µM | [9] 39.3 µM and 24.2 µM | [10] 42.7 µM and 42.5 µM | [11] > 100 µM | [12] > 100 µM | [13] 96.6 µM and 75.5 µM | [15] 78.5 µM | [16] 72.4 µM and 77.4 µM

Cc1nc(-c2nc(C)c(C(=O)NNC(=O)C[n+]3ccccc3)s2)sc1C(=O)NNC(=O)C[n+]1ccccc1
inactive: [1] 33.1 µM | [2] > 100 µM | [3] 65.6 µM | [4] 94.2 µM | [5] 90.2 µM | [17] 58.6 µM | [6] > 100 µM | [7] > 100 µM | [8] 45.7 µM | [9] 47 µM | [11] 70.6 µM | [12] > 100 µM | [13] 79.4 µM | [18] 39.5 µM | [14] 37.8 µM | [15] 66.2 µM | [16] > 100 µM

c1ccc2c(CNCCCCCCCCNCc3cccc4ccccc34)cccc2c1
inactive: [1] 16.4 µM | [2] 1.8 µM | [3] 1.88 µM | [4] 1.87 µM | [5] 10.6 µM | [17] 14.7 µM | [6] 1.8 µM | [7] 2.2 µM | [8] 1.85 µM | [9] 1.67 µM | [11] 4.55 µM | [12] 1.95 µM | [13] 1.72 µM | [18] 1.74 µM | [14] 1.63 µM | [15] 1.23 µM | [16] 1.96 µM

C1=Cc2nc1c(-c1ccccc1)c1nc(c(-c3ccccc3)c3ccc([nH]3)c(-c3ccccc3)c3ccc([nH]3)c2-c2ccccc2)C=C1 [TETRAPHENYLPORPHYRIN]
inactive: [1] > 100 µM | [2] > 100 µM | [3] > 100 µM | [4] > 100 µM | [5] > 100 µM | [17] > 100 µM | [6] > 100 µM | [7] > 100 µM | [8] > 100 µM | [9] > 100 µM | [10] > 100 µM | [11] > 100 µM | [12] > 100 µM | [13] > 100 µM | [14] > 100 µM | [15] > 100 µM | [16] > 100 µM
